Test results published in US11814444B2, “Cyclic polypeptides for PCSK9 inhibition” (Ra Pharmaceuticals, Inc., priority 2018, dated 2023).
Numbered stars: 1 amine (or outer) side, 2 acyl side, 3 side chain; on linkers, the order of the positions; unused ones are H or OH. Bridge positions count the residues as written; N and C are the ends. Square brackets hold non-standard residues; d marks the D form. Peptide text beside a SMILES is read from it. Phe(4-guanidino) = N=C(N)Nc1ccc(C[C@H](N)C(=O)O)cc1; Trp(7-aza) = N[C@@H](Cc1c[nH]c2ncccc12)C(=O)O; Leu(3R-OH) = CC(C)[C@@H](O)[C@H](N)C(=O)O; dBip = N[C@H](Cc1ccc(-c2ccccc2)cc1)C(=O)O; NMeW = CN[C@@H](Cc1c[nH]c2ccccc12)C(=O)O; mXylylene = c1cc(C[*:1])cc(C[*:2])c1; Gly(octyl) = CCCCCCCC[C@H](N)C(=O)O; Aad = N[C@@H](CCCC(=O)O)C(=O)O; Chg = N[C@H](C(=O)O)C1CCCCC1; Tle = CC(C)(C)[C@H](N)C(=O)O; αMeV = CC(C)[C@](C)(N)C(=O)O; S5 = C=CCCC[C@](C)(N)C(=O)O; hSer = N[C@@H](CCO)C(=O)O; Iva = CC[C@](C)(N)C(=O)O; Ac5c = NC1(C(=O)O)CCCC1; Nva = CCC[C@H](N)C(=O)O; Thp = NC1(C(=O)O)CCOCC1; Mpa = O=C(O)CCS

Molecular target: human PCSK9 / human LDLR EGFa domain interaction (Homo sapiens, UniProt Q8NBP7)
Sequence (Q8NBP7 153-692): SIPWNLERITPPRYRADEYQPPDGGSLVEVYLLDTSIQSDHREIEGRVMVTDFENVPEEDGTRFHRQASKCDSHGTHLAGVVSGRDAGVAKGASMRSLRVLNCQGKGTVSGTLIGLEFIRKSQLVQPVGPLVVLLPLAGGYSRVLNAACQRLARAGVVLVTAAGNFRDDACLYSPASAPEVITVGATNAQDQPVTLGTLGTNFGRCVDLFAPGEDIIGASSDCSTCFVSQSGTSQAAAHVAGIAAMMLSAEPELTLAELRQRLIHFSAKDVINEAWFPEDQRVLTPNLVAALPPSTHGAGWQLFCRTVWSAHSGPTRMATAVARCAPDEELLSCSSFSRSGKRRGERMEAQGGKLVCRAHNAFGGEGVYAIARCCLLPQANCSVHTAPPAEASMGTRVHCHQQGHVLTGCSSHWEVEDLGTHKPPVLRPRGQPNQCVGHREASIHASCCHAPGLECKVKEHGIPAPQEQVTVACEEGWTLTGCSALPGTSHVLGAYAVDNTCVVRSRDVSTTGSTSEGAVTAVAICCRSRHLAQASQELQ
Sequence (Q8NBP7 31-152 partner limits assumed): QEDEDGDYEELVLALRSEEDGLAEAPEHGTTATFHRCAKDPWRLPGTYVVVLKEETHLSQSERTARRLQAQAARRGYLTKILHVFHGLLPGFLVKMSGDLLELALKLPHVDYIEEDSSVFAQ
Assay: TR-FRET assay of inhibition of the PCSK9-LDLR protein-protein interaction
Format: binding
Conditions: 20 nM avitag-biotinylated human PCSK9, 20 nM his-tagged human LDLR EGFa domain, 2 hours, room temperature
Experimental: A time-resolved fluorescence resonance energy (TR-FRET) assay was used to measure inhibition of the PCSK9-LDLR protein-protein interaction. Briefly, 20 nM avitag-biotinylated human PCSK9 was incubated with 20 nM his-tagged human LDLR EGFa domain in the presence of 5 nM LANCE Ulight Streptavidin (Perkin Elmer) and 5 nM europium-Anti-6×His (Perkin Elmer) for 2 hours covered at room temperature in buffer containing 50 mM HEPES, 150 mM NaCl, 5 mM CaCl2), 0.01% BSA and 0.01% Surfactant P20. Compounds were tested in dose-response and concentrations giving half-maximal inhibition calculated using a 4-parameter fit equation.

Compound	IC50 [nM]
CCC[C@@H]1NC(=O)[C@H](Cc2c[nH]c3ncccc23)NC(=O)[C@H]([C@@H](C)OC)NC(=O)[C@H](Cc2c[nH]cn2)NC(=O)[C@H](Cc2ccc(O)cc2)NC(=O)[C@H](C(C)(C)C)NC(=O)CCSCc2cccc(c2)CSC[C@@H](C(N)=O)NC(=O)[C@H]([C@@H](C)O)NC(=O)[C@H](CCC)NC(=O)[C@H](Cc2ccc(O)cc2)NC(=O)[C@H](CCC(=O)O)NC1=O [Compound 333] ([Mpa][Tle]YHT(Me)[Trp(7-aza)][Nva]EY[Nva]TC-NH2; linker 1-12 via mXylylene)	1000 to 21000
CCC[C@@H]1NC(=O)[C@H](Cc2c[nH]c3ncccc23)NC(=O)[C@H]([C@@H](C)O)NC(=O)[C@H](Cc2c[nH]cn2)NC(=O)[C@H](Cc2ccc(O)cc2)NC(=O)[C@H](C(C)(C)C)NC(=O)CCSCc2cccc(c2)CSC[C@@H](C(N)=O)NC(=O)[C@H]([C@@H](C)O)NC(=O)[C@H](CCC)NC(=O)[C@H](Cc2ccc(NC(=N)N)cc2)NC(=O)[C@H](CCC(=O)O)NC1=O [Compound 323] ([Mpa][Tle]YHT[Trp(7-aza)][Nva]E[Phe(4-guanidino)][Nva]TC-NH2; linker 1-12 via mXylylene)	1000 to 21000
CCC[C@@H]1NC(=O)[C@H](Cc2ccc(O)cc2)NC(=O)[C@H](CCC(=O)O)NC(=O)[C@](C)(CC)NC(=O)[C@H](Cc2c[nH]c3ncccc23)NC(=O)[C@H]([C@@H](C)O)NC(=O)[C@H](Cc2c[nH]cn2)NC(=O)[C@H](Cc2ccc(O)cc2)NC(=O)[C@H](C(C)(C)C)NC(=O)CCSCc2cccc(c2)CSC[C@@H](C(N)=O)NC(=O)[C@H]([C@@H](C)O)NC1=O [Compound 291] ([Mpa][Tle]YHT[Trp(7-aza)][Iva]EY[Nva]TC-NH2; linker 1-12 via mXylylene)	100 to 1000
CCC[C@@H]1NC(=O)[C@H](Cc2c[nH]c3ncccc23)NC(=O)[C@H]([C@@H](C)O)NC(=O)[C@H](Cc2c[nH]cn2)NC(=O)[C@H](Cc2ccc(O)cc2)NC(=O)[C@H](C(C)(C)C)NC(=O)CCSCc2cccc(c2)CSC[C@@H](C(N)=O)NC(=O)[C@H]([C@@H](C)O)NC(=O)[C@H](CCC)NC(=O)[C@@H](Cc2ccc(-c3ccccc3)cc2)NC(=O)[C@H](CCC(=O)O)NC1=O [Compound 325] ([Mpa][Tle]YHT[Trp(7-aza)][Nva]E[dBip][Nva]TC-NH2; linker 1-12 via mXylylene)	100 to 1000
CCCCCCCC[C@@H]1NC(=O)[C@H](Cc2c[nH]c3ncccc23)NC(=O)[C@H]([C@@H](C)O)NC(=O)[C@@H]2CCCN2C(=O)[C@H](Cc2ccc(O)cc2)NC(=O)[C@H](C(C)(C)C)NC(=O)CCSCc2cccc(c2)CSC[C@@H](C(N)=O)NC(=O)[C@H]([C@@H](C)O)NC(=O)[C@H](CCC)NC(=O)[C@H](Cc2ccc(O)cc2)NC(=O)[C@H](C)NC1=O [Compound 169] ([Mpa][Tle]YPT[Trp(7-aza)][Gly(octyl)]AY[Nva]TC-NH2; linker 1-12 via mXylylene)	100 to 1000
CCC[C@@H]1NC(=O)[C@H](Cc2c[nH]c3ncccc23)NC(=O)[C@H]([C@@H](C)O)NC(=O)[C@@H]2CCCN2C(=O)[C@H](Cc2ccc(O)cc2)NC(=O)[C@H](C(C)(C)C)NC(=O)CCSCc2cccc(c2)CSC[C@@H](C(N)=O)NC(=O)[C@H]([C@@H](C)O)NC(=O)[C@H](CCC)NC(=O)[C@H](Cc2ccc(O)cc2)NC(=O)[C@H](C)NC1=O [Compound 157] ([Mpa][Tle]YPT[Trp(7-aza)][Nva]AY[Nva]TC-NH2; linker 1-12 via mXylylene)	100 to 1000
C=CCCC[C@]1(C)NC(=O)[C@H](CCC)NC(=O)[C@H](Cc2ccc(O)cc2)NC(=O)[C@H](C)NC(=O)[C@](C)(CC)NC(=O)[C@H](Cc2c[nH]c3ncccc23)NC(=O)[C@H]([C@@H](C)O)NC(=O)[C@@H]2CCCN2C(=O)[C@H](Cc2ccc(O)cc2)NC(=O)[C@H](C(C)(C)C)NC(=O)[C@@H](NC(C)=O)CCCC(=O)NCCCC[C@@H](C(N)=O)NC1=O [Compound 050] (Ac-[Aad][Tle]YPT[Trp(7-aza)][Iva]AY[Nva][S5]K-NH2; lactam 1-12)	1000 to 21000
CCC[C@@H]1NC(=O)[C@H](Cc2c[nH]c3ncccc23)NC(=O)[C@H]([C@H](O)C(C)C)NC(=O)[C@H](Cc2c[nH]cn2)NC(=O)[C@H](Cc2ccc(O)cc2)NC(=O)[C@H](C(C)(C)C)NC(=O)CCSCc2cccc(c2)CSC[C@@H](C(N)=O)NC(=O)[C@H]([C@@H](C)O)NC(=O)[C@H](CCC)NC(=O)[C@H](Cc2ccc(O)cc2)NC(=O)[C@H](CCC(=O)O)NC1=O [Compound 305] ([Mpa][Tle]YH[Leu(3R-OH)][Trp(7-aza)][Nva]EY[Nva]TC-NH2; linker 1-12 via mXylylene)	1000 to 21000
CCC[C@@H]1NC(=O)[C@H](Cc2ccc(O)cc2)NC(=O)[C@H](CCC(=O)O)NC(=O)[C@H](CCC)NC(=O)[C@H](Cc2c[nH]c3ccccc23)N(C)C(=O)[C@H]([C@@H](C)O)NC(=O)[C@H](Cc2c[nH]cn2)NC(=O)[C@H](Cc2ccc(O)cc2)NC(=O)[C@H](C(C)(C)C)NC(=O)CCSCc2cccc(c2)CSC[C@@H](C(N)=O)NC(=O)[C@H]([C@@H](C)O)NC1=O [Compound 206] ([Mpa][Tle]YHT[NMeW][Nva]EY[Nva]TC-NH2; linker 1-12 via mXylylene)	50000 to 100000
CCC[C@@H]1NC(=O)[C@H](Cc2ccc(O)cc2)NC(=O)[C@H](CCC(=O)O)NC(=O)C2(CCOCC2)NC(=O)[C@H](Cc2c[nH]c3ncccc23)NC(=O)[C@H]([C@@H](C)O)NC(=O)[C@H](Cc2c[nH]cn2)NC(=O)[C@H](Cc2ccc(O)cc2)NC(=O)[C@H](C(C)(C)C)NC(=O)CCSCc2cccc(c2)CSC[C@@H](C(N)=O)NC(=O)[C@H]([C@@H](C)O)NC1=O [Compound 300] ([Mpa][Tle]YHT[Trp(7-aza)][Thp]EY[Nva]TC-NH2; linker 1-12 via mXylylene)	100 to 1000
C[C@@H](O)[C@@H]1NC(=O)[C@H](C2CCCCC2)NC(=O)[C@H](Cc2c[nH]c3ncccc23)NC(=O)[C@H](Cc2c[nH]cn2)NC(=O)[C@H](CCC(=O)O)NC(=O)[C@H](Cc2c[nH]c3ncccc23)NC(=O)[C@H]([C@@H](C)O)NC(=O)[C@@H]2CCCN2C(=O)[C@H](Cc2ccc(O)cc2)NC(=O)[C@H](C(C)(C)C)NC(=O)CCSCc2cccc(c2)CSC[C@@H](C(N)=O)NC1=O [Compound 154] ([Mpa][Tle]YPT[Trp(7-aza)]EH[Trp(7-aza)][Chg]TC-NH2; linker 1-12 via mXylylene)	100 to 1000
CCC[C@@H]1NC(=O)[C@H](Cc2ccc(O)cc2)NC(=O)[C@H](CCC(=O)O)NC(=O)C2(CCCC2)NC(=O)[C@H](Cc2c[nH]c3ncccc23)NC(=O)[C@H]([C@@H](C)O)NC(=O)[C@H](Cc2c[nH]cn2)NC(=O)[C@H](Cc2ccc(O)cc2)NC(=O)[C@H](C(C)(C)C)NC(=O)CCSCc2cccc(c2)CSC[C@@H](C(N)=O)NC(=O)[C@H]([C@@H](C)O)NC1=O [Compound 299] ([Mpa][Tle]YHT[Trp(7-aza)][Ac5c]EY[Nva]TC-NH2; linker 1-12 via mXylylene)	100 to 1000
CCC[C@@H]1NC(=O)[C@H](Cc2c[nH]c3ncccc23)NC(=O)[C@H]([C@@H](C)O)NC(=O)[C@H](Cc2c[nH]cn2)NC(=O)[C@H](Cc2ccc(O)cc2)NC(=O)[C@H](C(C)(C)C)NC(=O)CCSCc2cccc(c2)CSC[C@@H](C(N)=O)NC(=O)[C@H]([C@@H](C)O)NC(=O)[C@H](C2CCCCC2)NC(=O)[C@H](Cc2ccc(O)cc2)NC(=O)[C@H](CCC(=O)O)NC1=O [Compound 285] ([Mpa][Tle]YHT[Trp(7-aza)][Nva]EY[Chg]TC-NH2; linker 1-12 via mXylylene)	100 to 1000
CCC[C@H](NC(C)=O)C(=O)N[C@H]1CSCc2cccc(c2)CSC[C@@H](C(N)=O)NC(=O)[C@H]([C@@H](C)O)NC(=O)[C@H](C2CCCCC2)NC(=O)[C@H](Cc2c[nH]c3ncccc23)NC(=O)[C@H](Cc2c[nH]cn2)NC(=O)[C@H](CCC(=O)O)NC(=O)[C@H](Cc2c[nH]c3ncccc23)NC(=O)[C@H]([C@@H](C)O)NC(=O)[C@@H]2CCCN2C(=O)[C@H](Cc2ccc(O)cc2)NC(=O)[C@H](C(C)(C)C)NC1=O [Compound 152] (Ac-[Nva]C[Tle]YPT[Trp(7-aza)]EH[Trp(7-aza)][Chg]TC-NH2; linker 2-13 via mXylylene)	1 to 100
CCC[C@@H]1NC(=O)[C@H](Cc2c[nH]c3ncccc23)NC(=O)[C@H]([C@@H](C)O)NC(=O)[C@@H]2CCCN2C(=O)[C@H](Cc2ccc(O)cc2)NC(=O)[C@H](C(C)(C)C)NC(=O)CCSCc2cccc(c2)CSC[C@@H](C(N)=O)NC(=O)[C@H]([C@@H](C)O)NC(=O)[C@H](CCC)NC(=O)[C@H](Cc2ccc(O)cc2)NC(=O)[C@H](CCO)NC1=O [Compound 158] ([Mpa][Tle]YPT[Trp(7-aza)][Nva][hSer]Y[Nva]TC-NH2; linker 1-12 via mXylylene)	1000 to 21000
CC[C@]1(C)NC(=O)[C@H](Cc2c[nH]c3ncccc23)NC(=O)[C@H]([C@@H](C)O)NC(=O)[C@@H]2CCCN2C(=O)[C@H](Cc2ccc(O)cc2)NC(=O)[C@H](C(C)(C)C)NC(=O)[C@@H](NC(C)=O)CSCc2cccc(c2)CSC[C@H](C(N)=O)NC(=O)[C@H]([C@@H](C)O)NC(=O)[C@](C)(C(C)C)NC(=O)[C@H](Cc2ccc(O)cc2)NC(=O)[C@H](C)NC1=O [Compound 193] (Ac-C[Tle]YPT[Trp(7-aza)][Iva]AY[αMeV]T[dC]-NH2; linker 1-12 via mXylylene)	1 to 100
CCC[C@@H]1NC(=O)[C@H](Cc2c[nH]c3ncccc23)NC(=O)[C@H]([C@@H](C)O)NC(=O)[C@H](Cc2c[nH]cn2)NC(=O)[C@H](Cc2ccc(O)cc2)NC(=O)[C@H](C(C)(C)C)NC(=O)CCSCc2cccc(c2)CSC[C@@H](C(N)=O)NC(=O)[C@H]([C@@H](C)O)NC(=O)[C@H](CCC)NC(=O)[C@H](Cc2ccc(O)cc2)NC(=O)[C@H](CCO)NC1=O [Compound 274] ([Mpa][Tle]YHT[Trp(7-aza)][Nva][hSer]Y[Nva]TC-NH2; linker 1-12 via mXylylene)	100 to 1000
